From patent publication US11149036B2, “3-(1H-pyrazol-4-yl)pyridine allosteric modulators of the M4 muscarinic acetylcholine receptor” (Merck Sharp & Dohme Corp., priority 2017, dated 2021)

Target: T1, human M4 muscarinic acetylcholine receptor (Homo sapiens, UniProt P08173)
T1 construct: expressed in transfected cells; host or cells: CHO-K1
T1 sequence (P08173 1-479): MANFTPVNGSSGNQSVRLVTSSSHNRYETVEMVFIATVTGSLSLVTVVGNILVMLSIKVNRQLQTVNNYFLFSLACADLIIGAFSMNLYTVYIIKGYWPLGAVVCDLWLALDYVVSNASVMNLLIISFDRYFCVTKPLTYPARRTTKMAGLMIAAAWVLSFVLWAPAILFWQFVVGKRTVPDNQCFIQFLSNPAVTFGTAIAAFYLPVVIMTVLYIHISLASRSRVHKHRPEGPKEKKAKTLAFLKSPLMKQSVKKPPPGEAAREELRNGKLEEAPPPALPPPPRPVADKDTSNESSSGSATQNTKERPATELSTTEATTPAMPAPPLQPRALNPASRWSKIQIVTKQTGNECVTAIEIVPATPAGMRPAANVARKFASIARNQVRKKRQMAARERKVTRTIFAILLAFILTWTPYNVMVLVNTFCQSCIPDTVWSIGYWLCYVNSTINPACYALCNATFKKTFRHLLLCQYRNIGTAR
Assay: human FLIPR-based M4 PAM assay (CHO-K1 cells with human M4 receptor and Gaqi5, calcium dye fluorescence)
Assay type: cell-based
Conditions: inflection point (IP) of dose response curve, acetylcholine added at 20% of maximum response, read-out: M4 FLIPPR Hu IP
In short: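 CHO-K1 cells stably expressing human M4 with chimeric Gaqi5, calcium-dye loaded ~1 h at 37° C; compound added at increasing concentrations 4 min before acetylcholine at an EC20 concentration (sometimes a further EC70 addition).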

Row | EC50 | Structure (SMILES)
1 | 44 nM | Cn1cnc2cc(-c3nc(C(F)F)ccc3-c3cnn(C[C@H]4CC[C@H](F)C4)c3)ccc21 [Example 120, 5-(6-(difluoromethyl)-3-(1-(((1S,3S)-3-fluorocyclopentyl)methyl)-1H-pyrazol-4-yl)pyridin-2-yl)-1-methyl-1H-benzo[d] imidazole]
2 | 26 nM | Cc1cn2ccc(-c3nc(C#N)ccc3-c3cnn(CC4C[C@@H](F)[C@H](F)C4)c3)cc2n1 [Example 83, 5-(1-(((3R,4R)-3,4-difluorocyclopentyl)methyl)-1H-pyrazol-4-yl)-6-(2-methylimidazo[1,2-a]pyridin-7-yl)picolinonitrile]
3 | 16 nM | CCc1cn2ccc(-c3nc(C#N)ccc3-c3cnn(CC4(F)CCCC4)c3)cc2n1 [Example 57, 6-(2-ethylimidazo[1,2-a]pyridin-7-yl)-5-(1-((1-fluorocyclopentyl)methyl)-1H-pyrazol-4-yl)picolinonitrile]
4 | 14 nM | Cc1ccc(-c2cnn(CC3CCCC3)c2)c(-c2ccc3cc(I)nnc3c2)n1 [Example 159, 7-(3-(1-(cyclopentylmethyl)-1H-pyrazol-4-yl)-6-methylpyridin-2-yl)-3-iodocinnoline]
5 | 40 nM | Cc1ccc(-c2cnn(CC3CCC(F)(F)C3)c2)c(-c2ccc3cccnc3c2)n1 (stereo not drawn) [Example 28, 7-(3-(1-((3,3-difluorocyclopentyl)methyl)-1H-pyrazol-4-yl)-6-methylpyridin-2-yl)quinoline]
6 | 17 nM | O=C1c2cc(-c3ncccc3-c3cnn(CC4(F)CCCC4)c3)ccc2CN1C1CCC1 [Example 139, 2-cyclobutyl-6-(3-(1-((1-fluorocyclopentyl)methyl)-1H-pyrazol-4-yl)pyridin-2-yl)isoindolin-1-one]
7 | 102 nM | CC1(C)NC(=O)c2cc(-c3nc(C#N)ccc3-c3cnn(CC4(F)CCCC4)c3)ccc21 [Example 46, 6-(1,1-dimethyl-3-oxoisoindolin-5-yl)-5-(1-((1-fluorocyclopentyl)methyl)-1H-pyrazol-4-yl)picolinonitrile49]
8 | 21 nM | CC1(Cn2cc(-c3cc(F)c(F)nc3-c3ccn4ccnc4c3)cn2)CCCC1 [Example 137, 7-(5,6-difluoro-3-(1-((1-methylcyclopentyl)methyl)-1H-pyrazol-4-yl)pyridin-2-yl)imidazo[1,2-a]pyridine]
9 | 36 nM | N#Cc1ccc(-c2cnn(CC3(F)CCCC3)c2)c(-c2ccn3cc(C4CC4)nc3c2)n1 [Example 54, 6-(2-cyclopropylimidazo[1,2-a]pyridin-7-yl)-5-(1-((1-fluorocyclopentyl)methyl)-1H-pyrazol-4-yl)picolinonitrile]
10 | 140 nM | COc1nc(-c2ccn3cc(C)nc3c2)c(-c2cnn(CC3(F)CCCC3)c2)cc1F [Example 114, 7-(5-fluoro-3-(1-((1-fluorocyclopentyl)methyl)-1H-pyrazol-4-yl)-6-methoxypyridin-2-yl)-2-methylimidazo[1,2-a]pyridine]
11 | 41 nM | Cn1nnc2cc(-c3nc(C#N)ccc3-c3cnn(CC4(F)CCCC4)c3)ccc21 [Example 56, 5-(1-((1-fluorocyclopentyl)methyl)-1H-pyrazol-4-yl)-6-(1-methyl-1H-benzo[1,2,3]triazol-5-yl)picolinonitrile]
12 | 67 nM | COc1cc2ccc(-c3nc(C)ccc3-c3cnn(CC4(C)CCC(=O)C4)c3)cc2nn1 (single isomer, unassigned) [Example 148, (S or R)-3-((4-(2-(3-methoxycinnolin-7-yl)-6-methylpyridin-3-yl)-1H-pyrazol-1-yl)methyl)-3-methylcyclopentan-1-one]
13 | 34 nM | Cc1cc(-c2cnn(CC3(C)CCCC3)c2)c(-c2ccn3ccnc3c2)nc1F [Example 93, 7-(6-fluoro-5-methyl-3-(1-((1-methylcyclopentyl)methyl)-1H-pyrazol-4-yl)pyridin-2-yl)imidazo[1,2-a]pyridine]
14 | 16 nM | Cc1ccc(-c2cnn(CC3(F)CCCC3)c2)c(-c2ccc3cc(F)cnc3c2)n1 [Example 21, 3-fluoro-7-(3-(1-((1-fluorocyclopentyl)methyl)-1H-pyrazol-4-yl)-6-methylpyridin-2-yl)quinoline]
15 | 50 nM | c1cnc(-c2ccc3cccnc3c2)c(-c2cnn(CC3CCCC3)c2)c1 [Example 147, 7-(3-(1-(cyclopentylmethyl)-1H-pyrazol-4-yl)pyridin-2-yl)quinoline]
16 | 18 nM | Cc1nnc2cc(-c3nc(C#N)ccc3-c3cnn(CC4(F)CCCC4)c3)ccn12 [Example 44, 5-(1-((1-fluorocyclopentyl)methyl)-1H-pyrazol-4-yl)-6-(3-methyl-[1,2,4]triazolo [4,3-a]pyridin-7-yl)picolinonitrile]
17 | 44 nM | Cn1c(Cl)nc2cc(-c3nc(C#N)ccc3-c3cnn(CC4(C)CCCC4)c3)ccc21 [Example 154, 6-(2-chloro-1-methyl-1H-benzo[d]imidazol-5-yl)-5-(1-((1-methylcyclopentyl)methyl)-1H-pyrazol-4-yl)picolinonitrile]
18 | 45 nM | CC1(Cn2cc(-c3ccc(C#N)nc3-c3ccc4cc(N5CCC5)cnc4c3)cn2)CCCC1 [Example 161, 6-(3-(azetidin-1-yl)Quinolin-7-yl)-5-(1-((1-methylcyclopentyl)methyl)-1H-pyrazol-4-yl)picolinonitrile]
19 | 72 nM | Cc1ccc(-c2nc(C)ccc2-c2cnn(CC3CCCC3)c2)cc1 [Example 6, 3-(1-(cyclopentylmethyl)-1H-pyrazol-4-yl)-6-methyl-2-(p-tolyl)pyridine]
20 | 59 nM | COc1cc2ccc(-c3nc(C(F)F)ccc3-c3cnn(C[C@@H]4CC[C@@H](F)C4)c3)cc2nn1 [Example 122, 7-(6-(difluoromethyl)-3-(1-(((1R,3R)-3-fluorocyclopentyl)methyl)-1H-pyrazol-4-yl)pyridin-2-yl)-3-methoxycinnoline]
21 | 10 nM | N#Cc1ccc(-c2cnn(CC3(F)CCCC3)c2)c(-c2ccn3cc(Cl)nc3c2)n1 [Example 52, 6-(2-chloroimidazol[1,2-a]pyridin-7-yl)-5-(1-((1-fluorocyclopentyl)methyl)-1H-pyrazol-4-yl)picolinonitrile]
